Columns and labels:
[1] = tested on: P-388 lymphocytic leukemia cells; assay: cytotoxicity, cell culture assay using P-388 lymphocytic leukemia cells, compared with taxol; format: cell-based; conditions: for ED50 /ED50 (taxol): P-388 leukemia, value of less than 1 = more active than taxol; for biological activity as compared with taxol (in words): P-388 cell culture assay; for antineoplastic activity relative to taxol, cell culture assay (P-388 leukemia in vitro): fold activity versus taxol
Text: Acylation of 22 with various aromatic carboxylic acids in the presence of dicyclohexylcarbodiimide and 4-pyrrolidinopyridine has led to the preparation of various 2-debenzoyl-2-acyl taxols 13. […] For details of the cell culture assay, see Abbott, B. J., "Protocol 14 of Instruction 275," National Cancer Institute, National Institutes of Health, Jan. 24, 1978.

[2] = tested on: non-small cell lung cancer; conditions: preliminary studies; cited from earlier work
[3] = tested on: ovarian cancer and breast cancer; conditions: cited from earlier work

Row | SMILES | ED50 /ED50 (taxol) [1] | other results
1 | CC(=O)O[C@H]1C(=O)[C@@]2(C)[C@H]([C@H](OC(=O)c3cccc(F)c3)[C@]3(O)C[C@H](OC(=O)[C@H](O)[C@@H](NC(=O)c4ccccc4)c4ccccc4)C(C)=C1C3(C)C)[C@]1(OC(C)=O)CO[C@@H]1C[C@@H]2O [Compound 13j] | 0.35 | –
2 | CC(=O)O[C@H]1C(=O)[C@@]2(C)[C@H]([C@H](OC(=O)c3cccc([N+](=O)[O-])c3)[C@]3(O)C[C@H](OC(=O)[C@H](O)[C@@H](NC(=O)c4ccccc4)c4ccccc4)C(C)=C1C3(C)C)[C@]1(OC(C)=O)CO[C@@H]1C[C@@H]2O [Compound 13c] | 0.3 | biological activity as compared with taxol (in words) [1]: much greater biological activity than taxol
3 | CC(=O)O[C@H]1C(=O)[C@@]2(C)[C@H]([C@H](OC(=O)c3ccc(F)cc3)[C@]3(O)C[C@H](OC(=O)[C@H](O)[C@@H](NC(=O)c4ccccc4)c4ccccc4)C(C)=C1C3(C)C)[C@]1(OC(C)=O)CO[C@@H]1C[C@@H]2O [Compound 13y] | 0.5 | –
4 | COc1cccc(C(=O)O[C@H]2[C@@H]3[C@]4(OC(C)=O)CO[C@@H]4C[C@H](O)[C@@]3(C)C(=O)[C@H](OC(C)=O)C3=C(C)[C@@H](OC(=O)[C@H](O)[C@@H](NC(=O)c4ccccc4)c4ccccc4)C[C@]2(O)C3(C)C)c1 [Compound 13p] | 0.0004 | –
5 | CC(=O)O[C@H]1C(=O)[C@@]2(C)[C@H]([C@H](OC(=O)c3ccc4ccccc4c3)[C@]3(O)C[C@H](OC(=O)[C@H](O)[C@@H](NC(=O)c4ccccc4)c4ccccc4)C(C)=C1C3(C)C)[C@]1(OC(C)=O)CO[C@@H]1C[C@@H]2O [Compound 13u] | 10 | –
6 | CC(=O)O[C@H]1C(=O)[C@@]2(C)[C@H]([C@H](OC(=O)c3cccc(C(F)(F)F)c3)[C@]3(O)C[C@H](OC(=O)[C@H](O)[C@@H](NC(=O)c4ccccc4)c4ccccc4)C(C)=C1C3(C)C)[C@]1(OC(C)=O)CO[C@@H]1C[C@@H]2O [Compound 13i] | 15 | –
7 | CC(=O)O[C@H]1C(=O)[C@@]2(C)[C@H]([C@H](OC(=O)c3ccc(C(F)(F)F)cc3)[C@]3(O)C[C@H](OC(=O)[C@H](O)[C@@H](NC(=O)c4ccccc4)c4ccccc4)C(C)=C1C3(C)C)[C@]1(OC(C)=O)CO[C@@H]1C[C@@H]2O [Compound 13ee] | 30 | –
8 | CC(=O)O[C@H]1C(=O)[C@@]2(C)[C@H]([C@H](OC(=O)c3cc(F)cc(F)c3)[C@]3(O)C[C@H](OC(=O)[C@H](O)[C@@H](NC(=O)c4ccccc4)c4ccccc4)C(C)=C1C3(C)C)[C@]1(OC(C)=O)CO[C@@H]1C[C@@H]2O [Compound 13t, 2-debenzoyl-2-(3,5-difluorobenzoyl)taxol] | 0.00004 | antineoplastic activity relative to taxol, cell culture assay (P-388 leukemia in vitro) [1]: 25,000 times; antineoplastic activity relative to taxol, cell culture assay (P-388 leukemia in vitro) ([1]; listed as drawing 14): about 25,000 times
9 | CC(=O)O[C@H]1C(=O)[C@@]2(C)[C@H]([C@H](OC(=O)c3cccc(I)c3)[C@]3(O)C[C@H](OC(=O)[C@H](O)[C@@H](NC(=O)c4ccccc4)c4ccccc4)C(C)=C1C3(C)C)[C@]1(OC(C)=O)CO[C@@H]1C[C@@H]2O [Compound 13s] | 0.028 | –
10 | CC(=O)O[C@H]1C(=O)[C@@]2(C)[C@H]([C@H](OC(=O)c3ccccc3)[C@]3(O)C[C@H](OC(=O)[C@H](O)[C@@H](NC(=O)c4ccccc4)c4ccccc4)C(C)=C1C3(C)C)[C@]1(OC(C)=O)CO[C@@H]1C[C@@H]2O [Taxol] | – | clinical activity [2]: good activity; clinical activity [3]: excellent clinical activity
11 | CC(=O)O[C@H]1C(=O)[C@@]2(C)[C@H]([C@H](OC(=O)c3ccoc3)[C@]3(O)C[C@H](OC(=O)[C@H](O)[C@@H](NC(=O)c4ccccc4)c4ccccc4)C(C)=C1C3(C)C)[C@]1(OC(C)=O)CO[C@@H]1C[C@@H]2O [Compound 13v] | 1.4 | –
12 | CC(=O)O[C@H]1C(=O)[C@@]2(C)[C@H]([C@H](OC(=O)c3ccc(C(C)=O)cc3)[C@]3(O)C[C@H](OC(=O)[C@H](O)[C@@H](NC(=O)c4ccccc4)c4ccccc4)C(C)=C1C3(C)C)[C@]1(OC(C)=O)CO[C@@H]1C[C@@H]2O [Compound 13ff] | 30 | –
13 | CC(=O)O[C@H]1C(=O)[C@@]2(C)[C@H]([C@H](OC(=O)c3ccccc3Cl)[C@]3(O)C[C@H](OC(=O)[C@H](O)[C@@H](NC(=O)c4ccccc4)c4ccccc4)C(C)=C1C3(C)C)[C@]1(OC(C)=O)CO[C@@H]1C[C@@H]2O [Compound 13o] | 0.011 | biological activity as compared with taxol (in words) [1]: increased bioactivity as compared with taxol
14 | CC(=O)O[C@H]1C(=O)[C@@]2(C)[C@H]([C@H](OC(=O)c3cccc(N)c3)[C@]3(O)C[C@H](OC(=O)[C@H](O)[C@@H](NC(=O)c4ccccc4)c4ccccc4)C(C)=C1C3(C)C)[C@]1(OC(C)=O)CO[C@@H]1C[C@@H]2O [Compound 13a] | 1500 | –
15 | CC(=O)O[C@H]1C(=O)[C@@]2(C)[C@H]([C@H](OC(=O)c3cccc(N=[N+]=[N-])c3)[C@]3(O)C[C@H](OC(=O)[C@H](O)[C@@H](NC(=O)c4ccccc4)c4ccccc4)C(C)=C1C3(C)C)[C@]1(OC(C)=O)CO[C@@H]1C[C@@H]2O [Compound 13f, 2-debenzoyl-2-(m-azidobenzoyl)taxol] | 0.002 | biological activity as compared with taxol (in words) [1]: much greater biological activity than taxol; antineoplastic activity relative to taxol, cell culture assay (P-388 leukemia in vitro) [1]: 500 times
16 | CC(=O)O[C@H]1C(=O)[C@@]2(C)[C@H]([C@H](OC(=O)c3cccc(C#N)c3)[C@]3(O)C[C@H](OC(=O)[C@H](O)[C@@H](NC(=O)c4ccccc4)c4ccccc4)C(C)=C1C3(C)C)[C@]1(OC(C)=O)CO[C@@H]1C[C@@H]2O [Compound 13h] | 0.25 | –
17 | CC(=O)O[C@H]1C(=O)[C@@]2(C)[C@H]([C@H](OC(=O)c3ccc(Cl)cc3)[C@]3(O)C[C@H](OC(=O)[C@H](O)[C@@H](NC(=O)c4ccccc4)c4ccccc4)C(C)=C1C3(C)C)[C@]1(OC(C)=O)CO[C@@H]1C[C@@H]2O [Compound 13bb] | 150 | –
18 | CC(=O)O[C@H]1C(=O)[C@@]2(C)[C@H]([C@H](OC(=O)c3cccc(Oc4ccccc4)c3)[C@]3(O)C[C@H](OC(=O)[C@H](O)[C@@H](NC(=O)c4ccccc4)c4ccccc4)C(C)=C1C3(C)C)[C@]1(OC(C)=O)CO[C@@H]1C[C@@H]2O [Compound 13r] | 4.3 | –
19 | CC(=O)O[C@H]1C(=O)[C@@]2(C)[C@H]([C@H](OC(=O)COc3ccccc3)[C@]3(O)C[C@H](OC(=O)[C@H](O)[C@@H](NC(=O)c4ccccc4)c4ccccc4)C(C)=C1C3(C)C)[C@]1(OC(C)=O)CO[C@@H]1C[C@@H]2O [Compound 13x] | 0.7 | –
20 | CC(=O)OC1C(=O)C2(C)C(O)CC3OCC3(OC(C)=O)C2C(OC(=O)c2cc([N+](=O)[O-])cc([N+](=O)[O-])c2)C2(O)CC(OC(=O)C(O)C(NC(=O)c3ccccc3)c3ccccc3)C(C)=C1C2(C)C (stereo not drawn) [Compound 13e] | 2.0 | –
21 | CC(=O)O[C@H]1C(=O)[C@@]2(C)[C@H]([C@H](OC(=O)c3ccc([N+](=O)[O-])cc3)[C@]3(O)C[C@H](OC(=O)[C@H](O)[C@@H](NC(=O)c4ccccc4)c4ccccc4)C(C)=C1C3(C)C)[C@]1(OC(C)=O)CO[C@@H]1C[C@@H]2O [Compound 13dd] | 8.3 | –
22 | CC(=O)O[C@H]1C(=O)[C@@]2(C)[C@H]([C@H](OC(C)=O)[C@]3(O)C[C@H](OC(=O)[C@H](O)[C@@H](NC(=O)c4ccccc4)c4ccccc4)C(C)=C1C3(C)C)[C@]1(OC(C)=O)CO[C@@H]1C[C@@H]2O [Compound 13w] | 28 | –
23 | CC(=O)OC1C(=O)C2(C)C(O)CC3OCC3(OC(C)=O)C2C(OC(=O)c2cccs2)C2(O)CC(OC(=O)C(O)C(NC(=O)c3ccccc3)c3ccccc3)C(C)=C1C2(C)C (stereo not drawn) [Compound 13k] | 10 | –
24 | CC(=O)O[C@H]1C(=O)[C@@]2(C)[C@H]([C@H](OC(=O)c3cccc(C)c3)[C@]3(O)C[C@H](OC(=O)[C@H](O)[C@@H](NC(=O)c4ccccc4)c4ccccc4)C(C)=C1C3(C)C)[C@]1(OC(C)=O)CO[C@@H]1C[C@@H]2O [Compound 13n] | 0.04 | –
25 | COc1cc(C(=O)O[C@H]2[C@@H]3[C@]4(OC(C)=O)CO[C@@H]4C[C@H](O)[C@@]3(C)C(=O)[C@H](OC(C)=O)C3=C(C)[C@@H](OC(=O)[C@H](O)[C@@H](NC(=O)c4ccccc4)c4ccccc4)C[C@]2(O)C3(C)C)cc(OC)c1OC [Compound 13g] | 0.5 | –
26 | CC(=O)O[C@H]1C(=O)[C@@]2(C)[C@H]([C@H](OC(=O)c3ccc(C#N)cc3)[C@]3(O)C[C@H](OC(=O)[C@H](O)[C@@H](NC(=O)c4ccccc4)c4ccccc4)C(C)=C1C3(C)C)[C@]1(OC(C)=O)CO[C@@H]1C[C@@H]2O [Compound 13aa] | 30 | –
27 | CC(=O)OC1C(=O)C2(C)C(O)CC3OCC3(OC(C)=O)C2C(OC(=O)c2cccc(Cl)c2)C2(O)CC(OC(=O)C(O)C(NC(=O)c3ccccc3)c3ccccc3)C(C)=C1C2(C)C (stereo not drawn) [Compound 13d] | 0.1 | biological activity as compared with taxol (in words) [1]: much greater biological activity than taxol
28 | CC(=O)O[C@H]1C(=O)[C@@]2(C)[C@H]([C@H](OC(=O)/C=C/c3ccccc3)[C@]3(O)C[C@H](OC(=O)[C@H](O)[C@@H](NC(=O)c4ccccc4)c4ccccc4)C(C)=C1C3(C)C)[C@]1(OC(C)=O)CO[C@@H]1C[C@@H]2O [Compound 13b] | 10 | biological activity as compared with taxol (in words) [1]: less active or about as active as taxol
29 | CC(=O)O[C@H]1C(=O)[C@@]2(C)[C@H]([C@H](OC(=O)c3ccc(Cl)c(Cl)c3)[C@]3(O)C[C@H](OC(=O)[C@H](O)[C@@H](NC(=O)c4ccccc4)c4ccccc4)C(C)=C1C3(C)C)[C@]1(OC(C)=O)CO[C@@H]1C[C@@H]2O [Compound 13m] | 0.003 | –
30 | CSc1ccc(C(=O)O[C@H]2[C@@H]3[C@]4(OC(C)=O)CO[C@@H]4C[C@H](O)[C@@]3(C)C(=O)[C@H](OC(C)=O)C3=C(C)[C@@H](OC(=O)[C@H](O)[C@@H](NC(=O)c4ccccc4)c4ccccc4)C[C@]2(O)C3(C)C)cc1 [Compound 13cc] | 12 | –

— patent US6002023A, “2-debenzoyl-2-acyl taxol derivatives and method for making same” (Virginia Tech Intellectural Properties, Inc., priority 1997, dated 1999)
